This note sets out measurements from ChEMBL document CHEMBL2311364, “Novel peptidomimetics as BACE-1 inhibitors: synthesis, molecular modeling, and biological studies” (Bioorg Med Chem Lett, 2013).

Usually pIC50 stands for −log10 of the IC50, conventionally taken in molar units.

Structures are written as SMILES. pIC50: −log10 of the molar value. The source made the active and inactive calls. No cut-off for these calls is given here. A value given as a limit tells only on which side of the number the result lay.

Experiment [1] deals with T1, Beta-secretase 1 (Homo sapiens, UniProt P56817). The experiment in a line: Inhibition of human recombinant BACE-1 using acetyl-C(W8044-Eu)-EVNLDAEFK-QSY7 as substrate at 100 uM by TR-FRET assay. (In general: TR-FRET usually uses a lanthanide donor and a delayed reading to cut background.)
T1 sequence (P56817 whole entry): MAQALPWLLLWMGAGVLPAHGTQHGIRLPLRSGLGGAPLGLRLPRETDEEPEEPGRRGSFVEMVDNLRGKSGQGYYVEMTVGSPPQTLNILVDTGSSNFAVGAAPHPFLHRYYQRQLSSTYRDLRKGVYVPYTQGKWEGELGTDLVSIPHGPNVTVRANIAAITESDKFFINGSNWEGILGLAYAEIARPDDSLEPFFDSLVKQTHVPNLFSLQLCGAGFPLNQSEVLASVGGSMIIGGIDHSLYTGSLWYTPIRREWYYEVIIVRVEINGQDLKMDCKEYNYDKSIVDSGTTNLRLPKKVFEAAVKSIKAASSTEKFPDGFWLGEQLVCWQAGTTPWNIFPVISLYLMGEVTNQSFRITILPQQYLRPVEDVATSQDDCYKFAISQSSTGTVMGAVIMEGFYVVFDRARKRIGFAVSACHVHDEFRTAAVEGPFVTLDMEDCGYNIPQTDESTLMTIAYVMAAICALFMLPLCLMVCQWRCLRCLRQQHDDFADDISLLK
The target in experiment [2] is T1, Beta-secretase 1. The experiment can be described thus: Inhibition of human recombinant BACE-1 using acetyl-C(W8044-Eu)-EVNLDAEFK-QSY7 as substrate by TR-FRET assay.
For experiment [3], the target named is T1, Beta-secretase 1. The experiment can be described thus: Inhibition of BACE1 in human SHSY5Y cells expressing APP NFEV and wild-type alpha-cleavage site. In kind it is cell-based, SH-SY5Y.
Experiment [4] has as its target T1, Beta-secretase 1. The experiment in a line: Inhibition of BACE1 in HEK293 cells expressing modified BACE cleavage sequence of APP, NFEV and K612V mutation. In kind it is cell-based.

As to `CC(C)(C)OC(=O)N1CCN(c2cccc(C(=O)c3ccccc3)c2NC(=O)[C@@H](NC(=O)OCc2ccccc2)c2ccccc2)CC1`, on Beta-secretase 1 [1], the inhibition entry is “inactive”.
In the case of `O=C(N[C@@H](C(=O)Nc1cc(C(CO)NCc2ccccc2)ccc1C(=O)c1ccccc1)c1ccccc1)OCc1ccccc1` (stereo partly drawn), the negative-log IC50 (pIC50) on Beta-secretase 1 [2] was 5.38.
In the case of `O=C(N[C@@H](C(=O)Nc1cc(C(O)CNCc2ccccc2)ccc1C(=O)c1ccccc1)c1ccccc1)OCc1ccccc1` (stereo partly drawn), the values for the negative logarithm of the IC50 (pIC50) against Beta-secretase 1 [3], on Beta-secretase 1 [4] and on Beta-secretase 1 [2] were below 5.92, below 5.59 and 5.59, respectively.
With `CC(C)(C)OC(=O)N1CCN(c2cccc3c2NC(=O)[C@H](CCc2ccccc2)N=C3c2ccccc2)CC1`, the inhibition entry on Beta-secretase 1 [1] is “inactive”.
With `O=C1Nc2cc(C(CO)NCc3ccccc3)ccc2C(c2ccccc2)=N[C@@H]1c1ccccc1` (stereo partly drawn), the pIC50 on Beta-secretase 1 [2] is 4.96.
Regarding `CC(C)(C)OC(=O)N1CCN(CC(O)c2ccc(C(=O)c3ccccc3)c(NC(=O)[C@H](NC(=O)OCc3ccccc3)c3ccccc3)c2)CC1` (stereo partly drawn), the negative-log IC50 (pIC50) at Beta-secretase 1 [2] was 5.31.
On the same count and under the same terms, under `CC(C)(C)OC(=O)N1CCN(c2cccc3c2NC(=O)[C@H](c2ccccc2)N=C3c2ccccc2)CC1` stands 4.46; under `CC(C)(C)OC(=O)N1CCN(c2cccc3c2NC(=O)[C@@H](c2ccccc2)N=C3c2ccccc2)CC1`, 4.37.
As to `O=C1Nc2cc(C(O)CNCc3ccccc3)ccc2C(c2ccccc2)=N[C@@H]1c1ccccc1` (stereo partly drawn), the inhibition entry at Beta-secretase 1 [1] was “inactive”.
For `O=C(N[C@H](C(=O)Nc1cc(C(O)CNCc2ccccc2)ccc1C(=O)c1ccccc1)c1ccccc1)OCc1ccccc1` (stereo partly drawn), the negative logarithm of the IC50 (pIC50) against Beta-secretase 1 [3] was below 5.92; on Beta-secretase 1 [4], below 5.59; at Beta-secretase 1 [2] it was 5.62.
For the compound `O=C1Nc2ccccc2C(c2ccccc2)=N[C@H]1C(O)CN1CCNCC1` (stereo partly drawn), on Beta-secretase 1 [2], the pIC50 is 4.90.
`CC(C)(C)OC(=O)N1CCN(CC(O)c2ccc3c(c2)NC(=O)[C@@H](c2ccccc2)N=C3c2ccccc2)CC1` (stereo partly drawn): the inhibition result on Beta-secretase 1 [1] is “inactive”.
On to `O=C(N[C@H](C(=O)Nc1cc(C(CO)NCc2ccccc2)ccc1C(=O)c1ccccc1)c1ccccc1)OCc1ccccc1` (stereo partly drawn), for which the negative-log IC50 (pIC50) against Beta-secretase 1 [3] was below 5.92; on Beta-secretase 1 [4] it was below 5.59; at Beta-secretase 1 [2], 5.39.
As for `O=C1Nc2cc(C(CO)NCc3ccccc3)ccc2C(c2ccccc2)=N[C@H]1c1ccccc1` (stereo partly drawn), the pIC50 on Beta-secretase 1 [3] is below 4.96; at Beta-secretase 1 [4], below 4.66.
As for `CC(C)(C)OC(=O)N1CCN(c2cccc3c2NC(=O)[C@H](Cc2ccccc2)N=C3c2ccccc2)CC1`, the inhibition result on Beta-secretase 1 [1] is “inactive”.
For the compound `O=C1Nc2c(cccc2N2CCNCC2)C(c2ccccc2)=N[C@H]1c1ccccc1`, the inhibition entry on Beta-secretase 1 [1] is “inactive”.
